# Source: PubChem BioAssay (NCI)
#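 In this assay, cells in 96-well plates receive the compound at five concentrations for 48 hours. Endpoints are linearly interpolated between the surrounding concentrations. TGI denotes the concentration required for complete inhibition of growth.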
# Assays:
# Experiment in all cases: NCI tumour cell line growth inhibition, 48 h
# A498 renal = tested on: A498 renal
# A549 NSCLC = tested on: A549 NSCLC
# CCRF-CEM leukemia = tested on: CCRF-CEM leukemia
# COLO 205 colon = tested on: COLO 205 colon
# DLD-1 colon = tested on: DLD-1 colon
# DMS 114 small cell lung = tested on: DMS 114 small cell lung
# DMS 273 small cell lung = tested on: DMS 273 small cell lung
# EKVX NSCLC = tested on: EKVX NSCLC
# HCC-2998 colon = tested on: HCC-2998 colon
# HCT-116 colon = tested on: HCT-116 colon
# HCT-15 colon = tested on: HCT-15 colon
# HL-60(TB) leukemia = tested on: HL-60(TB) leukemia
# HOP-18 NSCLC = tested on: HOP-18 NSCLC
# HOP-62 NSCLC = tested on: HOP-62 NSCLC
# HOP-92 NSCLC = tested on: HOP-92 NSCLC
# HT29 colon = tested on: HT29 colon
# IGROV1 ovarian = tested on: IGROV1 ovarian
# K-562 leukemia = tested on: K-562 leukemia
# KM12 colon = tested on: KM12 colon
# KM20L2 colon = tested on: KM20L2 colon
# LOX IMVI melanoma = tested on: LOX IMVI melanoma
# M19-MEL melanoma = tested on: M19-MEL melanoma
# MALME-3M melanoma = tested on: MALME-3M melanoma
# MCF7 breast = tested on: MCF7 breast
# MOLT-4 leukemia = tested on: MOLT-4 leukemia
# NCI-H226 lung = tested on: NCI-H226 lung
# NCI-H23 lung = tested on: NCI-H23 lung
# NCI-H460 lung = tested on: NCI-H460 lung
# NCI-H522 lung = tested on: NCI-H522 lung
# NCI/ADR-RES ovarian = tested on: NCI/ADR-RES ovarian
# OVCAR-3 ovarian = tested on: OVCAR-3 ovarian
# OVCAR-4 ovarian = tested on: OVCAR-4 ovarian
# OVCAR-5 ovarian = tested on: OVCAR-5 ovarian
# OVCAR-8 ovarian = tested on: OVCAR-8 ovarian
# P388 leukemia = tested on: P388 leukemia
# P388/ADR leukemia = tested on: P388/ADR leukemia
# RPMI-8226 leukemia = tested on: RPMI-8226 leukemia
# RXF 393 renal = tested on: RXF 393 renal
# SF-268 CNS = tested on: SF-268 CNS
# SF-295 CNS = tested on: SF-295 CNS
# SF-539 CNS = tested on: SF-539 CNS
# SK-MEL-2 melanoma = tested on: SK-MEL-2 melanoma
# SK-MEL-28 melanoma = tested on: SK-MEL-28 melanoma
# SK-MEL-5 melanoma = tested on: SK-MEL-5 melanoma
# SK-OV-3 ovarian = tested on: SK-OV-3 ovarian
# SN12C renal = tested on: SN12C renal
# SN12K1 renal = tested on: SN12K1 renal
# SNB-19 CNS = tested on: SNB-19 CNS
# SNB-75 CNS = tested on: SNB-75 CNS
# SNB-78 CNS = tested on: SNB-78 CNS
# SW-620 colon = tested on: SW-620 colon
# U251 CNS = tested on: U251 CNS
# UACC-257 melanoma = tested on: UACC-257 melanoma
# UACC-62 melanoma = tested on: UACC-62 melanoma
# UO-31 renal = tested on: UO-31 renal
# XF 498 CNS = tested on: XF 498 CNS
# 786-0 renal = tested on: 786-0 renal
# ACHN renal = tested on: ACHN renal
# CAKI-1 renal = tested on: CAKI-1 renal
# LXFL 529 NSCLC = tested on: LXFL 529 NSCLC
# M14 melanoma = tested on: M14 melanoma
# RXF-631 renal = tested on: RXF-631 renal
# SR leukemia = tested on: SR leukemia
# TK-10 renal = tested on: TK-10 renal
structure (smiles),measurement,setting,value
COc1nc(NC2OC(CO)C(O)C(O)C2O)c(N)c(=O)[nH]1 (stereo not given),TGI,A498 renal,> 100 µM
same,TGI,A549 NSCLC,> 100 µM
same,TGI,CCRF-CEM leukemia,> 100 µM
same,TGI,COLO 205 colon,> 100 µM
same,TGI,DLD-1 colon,> 100 µM
same,TGI,DMS 114 small cell lung,> 100 µM
same,TGI,DMS 273 small cell lung,> 100 µM
same,TGI,EKVX NSCLC,> 100 µM
same,TGI,HCC-2998 colon,> 100 µM
same,TGI,HCT-116 colon,> 100 µM
same,TGI,HCT-15 colon,> 100 µM
same,TGI,HL-60(TB) leukemia,> 100 µM
same,TGI,HOP-18 NSCLC,> 100 µM
same,TGI,HOP-62 NSCLC,> 100 µM
same,TGI,HOP-92 NSCLC,> 100 µM
same,TGI,HT29 colon,> 100 µM
same,TGI,IGROV1 ovarian,> 100 µM
same,TGI,K-562 leukemia,> 100 µM
same,TGI,KM12 colon,> 100 µM
same,TGI,KM20L2 colon,> 100 µM
same,TGI,LOX IMVI melanoma,> 100 µM
same,TGI,M19-MEL melanoma,> 100 µM
same,TGI,MALME-3M melanoma,> 100 µM
same,TGI,MCF7 breast,> 100 µM
same,TGI,MOLT-4 leukemia,> 100 µM
same,TGI,NCI-H226 lung,> 31.6 µM
same,TGI,NCI-H23 lung,> 100 µM
same,TGI,NCI-H460 lung,> 100 µM
same,TGI,NCI-H522 lung,> 100 µM
same,TGI,NCI/ADR-RES ovarian,> 100 µM
same,TGI,OVCAR-3 ovarian,> 100 µM
same,TGI,OVCAR-4 ovarian,> 100 µM
same,TGI,OVCAR-5 ovarian,> 100 µM
same,TGI,OVCAR-8 ovarian,> 100 µM
same,TGI,P388 leukemia,> 100 µM
same,TGI,P388/ADR leukemia,> 100 µM
same,TGI,RPMI-8226 leukemia,> 100 µM
same,TGI,RXF 393 renal,> 100 µM
same,TGI,SF-268 CNS,> 100 µM
same,TGI,SF-295 CNS,> 100 µM
same,TGI,SF-539 CNS,> 100 µM
same,TGI,SK-MEL-2 melanoma,> 100 µM
same,TGI,SK-MEL-28 melanoma,> 100 µM
same,TGI,SK-MEL-5 melanoma,> 100 µM
same,TGI,SK-OV-3 ovarian,> 100 µM
same,TGI,SN12C renal,> 100 µM
same,TGI,SN12K1 renal,> 100 µM
same,TGI,SNB-19 CNS,> 100 µM
same,TGI,SNB-75 CNS,> 100 µM
same,TGI,SNB-78 CNS,> 100 µM
same,TGI,SW-620 colon,> 100 µM
same,TGI,U251 CNS,> 100 µM
same,TGI,UACC-257 melanoma,> 100 µM
same,TGI,UACC-62 melanoma,> 100 µM
same,TGI,UO-31 renal,> 100 µM
same,TGI,XF 498 CNS,> 100 µM
CC[As](CC)SCC1OC(OC(C)=O)C(OC(C)=O)C(OC(C)=O)C1OC(C)=O (stereo not given),TGI,786-0 renal,28.1 µM
same,TGI,A498 renal,38.9 µM
same,TGI,A549 NSCLC,39.6 µM
same,TGI,ACHN renal,31.5 µM
same,TGI,CAKI-1 renal,10.4 µM
same,TGI,CCRF-CEM leukemia,18.4 µM
same,TGI,COLO 205 colon,10 µM
same,TGI,DLD-1 colon,30.9 µM
same,TGI,DMS 114 small cell lung,17.6 µM
same,TGI,DMS 273 small cell lung,29.4 µM
same,TGI,EKVX NSCLC,37.2 µM
same,TGI,HCC-2998 colon,31.7 µM
same,TGI,HCT-116 colon,32.1 µM
same,TGI,HCT-15 colon,26.4 µM
same,TGI,HL-60(TB) leukemia,19.2 µM
same,TGI,HOP-18 NSCLC,29.6 µM
same,TGI,HOP-62 NSCLC,38.3 µM
same,TGI,HOP-92 NSCLC,13.2 µM
same,TGI,HT29 colon,54 µM
same,TGI,IGROV1 ovarian,33.8 µM
same,TGI,K-562 leukemia,14 µM
same,TGI,KM12 colon,34.7 µM
same,TGI,KM20L2 colon,32.7 µM
same,TGI,LOX IMVI melanoma,33.6 µM
same,TGI,LXFL 529 NSCLC,3.77 µM
same,TGI,M14 melanoma,24.7 µM
same,TGI,M19-MEL melanoma,27.5 µM
same,TGI,MALME-3M melanoma,10.3 µM
same,TGI,MOLT-4 leukemia,48.2 µM
same,TGI,NCI-H226 lung,28.9 µM
same,TGI,NCI-H23 lung,36.4 µM
same,TGI,NCI-H460 lung,31.3 µM
same,TGI,NCI-H522 lung,3.2 µM
same,TGI,OVCAR-3 ovarian,27.6 µM
same,TGI,OVCAR-4 ovarian,37 µM
same,TGI,OVCAR-5 ovarian,32.4 µM
same,TGI,OVCAR-8 ovarian,31.9 µM
same,TGI,RPMI-8226 leukemia,36.2 µM
same,TGI,RXF 393 renal,9.69 µM
same,TGI,RXF-631 renal,6.64 µM
same,TGI,SF-268 CNS,25.8 µM
same,TGI,SF-295 CNS,35.7 µM
same,TGI,SF-539 CNS,27.4 µM
same,TGI,SK-MEL-2 melanoma,26.2 µM
same,TGI,SK-MEL-28 melanoma,15.7 µM
same,TGI,SK-MEL-5 melanoma,28.4 µM
same,TGI,SK-OV-3 ovarian,29.3 µM
same,TGI,SN12C renal,28.4 µM
same,TGI,SNB-19 CNS,33.5 µM
same,TGI,SNB-75 CNS,52.7 µM
same,TGI,SNB-78 CNS,34.1 µM
same,TGI,SR leukemia,75.4 µM
same,TGI,SW-620 colon,16.3 µM
same,TGI,TK-10 renal,30.4 µM
same,TGI,U251 CNS,25.3 µM
same,TGI,UACC-257 melanoma,28.6 µM
same,TGI,UACC-62 melanoma,27.2 µM
same,TGI,UO-31 renal,29.8 µM
same,TGI,XF 498 CNS,32 µM
